In patent publication US9730938B2, “Bruton's tyrosine kinase inhibitor combinations and uses thereof” (Pharmacyclics LLC, priority 2014, dated 2017):

Columns and labels:
Assay type in all cases: cell-based
Settings in all cases: 3 days
[1] = tested on: TMD8; experiment: Combined drug treatment cell viability, CellTiter-Glo assay (Example 2)
[2] = tested on: OCI-LY-10; experiment: as above
[3] = tested on: OCI-LY-3; experiment: as above
[4] = tested on: HBL-1; experiment: as above
[5] = tested on: U2932; experiment: as above
[6] = tested on: SU-DHL-2; experiment: as above
[7] = tested on: OCI-LY-10; experiment: Combined drug treatment cell viability, CellTiter-Glo assay (Example 1)
Description: (§1) DLBCL cells at either 1×10^4 cells or 2×10^4 cells were plated onto each well of a 96-W plate (Table 1).
(§2) The stock solutions for the IDH1 inhibitor AGI5198 and the MALT1 inhibitor MI-2 were each prepared at 50 mM concentration.
(§3) The 96-W plate was then incubated for 3 days. Cell viability was examined using a CellTiter-Glo assay.
(§4) A 40 μL of CellTiter-Glo reagent was added directly into each well of the 96-W plate. The plate was then shaken on a Shaker (Labsystem Wellmix) at speed 5 for 10-20 min at room temperature. Next, 100 μL of the mixed medium was transferred to a white, non-transparent, flat bottom 96-W plate for assaying. A Flexstation 3 luminometer was used for detecting and measuring the luminescent signals. Measurements were taken at room temperature.
(§5) In general, the combination is described as synergistic (CI<1), additive (CI=1), or antagonistic (CI>1). Synergism is further separated into very strong synergism (<0.1), strong synergism (0.1-0.3), synergism (0.3-0.7), moderate synergism (0.7-0.85), and slight synergism (0.85-0.9).

[8] = tested on: OCI-LY-3; experiment: as above
Description: as §1, §2, §3, §4, §5

[9] = tested on: SU-DHL-2; experiment: as above
Description: as §1, §2, §3, §4, §5

[10] = tested on: TMD8; experiment: as above
Description: as §1, §2, §3, §4, §5

[11] = tested on: U2932; experiment: as above
Description: as §1, §2, §3, §4, §5

[12] = ibrutinib 0 nM, JAK3 10 μM / MCL-1 3 μM alone
[13] = ibrutinib 0.0512 nM, JAK3 10 μM / MCL-1 3 μM / medium alone
[14] = ibrutinib 0.256 nM, JAK3 10 μM / MCL-1 3 μM / medium alone
[15] = ibrutinib 1.28 nM, JAK3 10 μM / MCL-1 3 μM / medium alone
[16] = ibrutinib 6.4 nM, JAK3 10 μM / MCL-1 3 μM / medium alone
[17] = ibrutinib 32 nM, JAK3 10 μM / MCL-1 3 μM / medium alone
[18] = ibrutinib 160 nM, JAK3 10 μM / MCL-1 3 μM / medium alone
[19] = ibrutinib 800 nM, JAK3 10 μM / MCL-1 3 μM / medium alone
[20] = ibrutinib 20000 nM, JAK3 10 μM / MCL-1 3 μM / medium alone
[21] = ibrutinib 40000 nM, JAK3 10 μM / MCL-1 3 μM / medium alone
[22] = ibrutinib 0 nM, IDH1i 10 uM / MALT1i 5 uM alone
[23] = ibrutinib 0.0256 nM, IDH1i 10 uM / MALT1i 5 uM / medium alone
[24] = ibrutinib 0.128 nM, IDH1i 10 uM / MALT1i 5 uM / medium alone
[25] = ibrutinib 0.64 nM, IDH1i 10 uM / MALT1i 5 uM / medium alone
[26] = ibrutinib 3.2 nM, IDH1i 10 uM / MALT1i 5 uM / medium alone
[27] = ibrutinib 16 nM, IDH1i 10 uM / MALT1i 5 uM / medium alone
[28] = ibrutinib 80 nM, IDH1i 10 uM / MALT1i 5 uM / medium alone
[29] = ibrutinib 400 nM, IDH1i 10 uM / MALT1i 5 uM / medium alone
[30] = ibrutinib 2000 nM, IDH1i 10 uM / MALT1i 5 uM / medium alone
[31] = ibrutinib 10000 nM, IDH1i 10 uM / MALT1i 5 uM / medium alone
[32] = ibrutinib 0 nM, IDH1i 10 uM / MALT1i 200 nM alone
[33] = ibrutinib 0.0256 nM, IDH1i 10 uM / MALT1i 200 nM / medium alone
[34] = ibrutinib 0.128 nM, IDH1i 10 uM / MALT1i 200 nM / medium alone
[35] = ibrutinib 0.64 nM, IDH1i 10 uM / MALT1i 200 nM / medium alone
[36] = ibrutinib 3.2 nM, IDH1i 10 uM / MALT1i 200 nM / medium alone
[37] = ibrutinib 16 nM, IDH1i 10 uM / MALT1i 200 nM / medium alone
[38] = ibrutinib 80 nM, IDH1i 10 uM / MALT1i 200 nM / medium alone
[39] = ibrutinib 400 nM, IDH1i 10 uM / MALT1i 200 nM / medium alone
[40] = ibrutinib 2000 nM, IDH1i 10 uM / MALT1i 200 nM / medium alone
[41] = ibrutinib 10000 nM, IDH1i 10 uM / MALT1i 200 nM / medium alone

`Cc1csc(=NC2CCCCC2)n1/N=C/c1ccc(O)c(O)c1O` [MIM1] was tested, and the “luminescence (CellTiter-Glo)” value [1, 12] was 36019.47, the “luminescence (CellTiter-Glo)” value [1, 13] was 19059.39 and the “luminescence (CellTiter-Glo)” value [1, 14] was 18570.62. The “luminescence (CellTiter-Glo)” value [1, 15] was 18591.98, the “luminescence (CellTiter-Glo)” value [1, 16] was 19112.81 and the “luminescence (CellTiter-Glo)” value [1, 17] was 19032.68. The “luminescence (CellTiter-Glo)” value [1, 18] was 19452.01, the “luminescence (CellTiter-Glo)” value [1, 19] was 18063.15 and the “luminescence (CellTiter-Glo)” value [1, 20] was 4767.52. The “luminescence (CellTiter-Glo)” value [1, 21] was 15624.64, the “luminescence (CellTiter-Glo)” value [2, 12] was 43143.62 and the “luminescence (CellTiter-Glo)” value [2, 13] was 33524.45. The “luminescence (CellTiter-Glo)” value [2, 14] was 26007.29, the “luminescence (CellTiter-Glo)” value [2, 15] was 18751.19 and the “luminescence (CellTiter-Glo)” value [2, 16] was 11024.10. The “luminescence (CellTiter-Glo)” value [2, 17] was 8025.84, the “luminescence (CellTiter-Glo)” value [2, 18] was 8938.24 and the “luminescence (CellTiter-Glo)” value [2, 19] was 9390.40. For the same compound, the “luminescence (CellTiter-Glo)” value [2, 20] was 9228.91, the “luminescence (CellTiter-Glo)” value [2, 21] was 10886.83 and the “luminescence (CellTiter-Glo)” value [3, 12] was 80237.62. For the same compound, the “luminescence (CellTiter-Glo)” value [3, 13] was 76311.68, the “luminescence (CellTiter-Glo)” value [3, 14] was 80052.59 and the “luminescence (CellTiter-Glo)” value [3, 15] was 80436.06. For the same compound, the “luminescence (CellTiter-Glo)” value [3, 16] was 73884.80, the “luminescence (CellTiter-Glo)” value [3, 17] was 75378.47 and the “luminescence (CellTiter-Glo)” value [3, 18] was 65609.22. The “luminescence (CellTiter-Glo)” value [3, 19] was 74844.82, the “luminescence (CellTiter-Glo)” value [3, 20] was 75182.71 and the “luminescence (CellTiter-Glo)” value [3, 21] was 74901.14. For the same compound, the “luminescence (CellTiter-Glo)” value [4, 12] was 51241.07, the “luminescence (CellTiter-Glo)” value [4, 13] was 27898.48 and the “luminescence (CellTiter-Glo)” value [4, 14] was 29488.62. For the same compound, the “luminescence (CellTiter-Glo)” value [4, 15] was 35637.34, the “luminescence (CellTiter-Glo)” value [4, 16] was 30743.57 and the “luminescence (CellTiter-Glo)” value [4, 17] was 31548.03. The “luminescence (CellTiter-Glo)” value [4, 18] was 32832.47, the “luminescence (CellTiter-Glo)” value [4, 19] was 28815.56 and the “luminescence (CellTiter-Glo)” value [4, 20] was 7366.12. For the same compound, the “luminescence (CellTiter-Glo)” value [4, 21] was 26941.18, the “luminescence (CellTiter-Glo)” value [5, 12] was 59686.00 and the “luminescence (CellTiter-Glo)” value [5, 13] was 55451.36. The “luminescence (CellTiter-Glo)” value [5, 14] was 53088.09, the “luminescence (CellTiter-Glo)” value [5, 15] was 54122.68 and the “luminescence (CellTiter-Glo)” value [5, 16] was 53424.93. For the same compound, the “luminescence (CellTiter-Glo)” value [5, 17] was 51898.43, the “luminescence (CellTiter-Glo)” value [5, 18] was 50938.68 and the “luminescence (CellTiter-Glo)” value [5, 19] was 51419.90. For the same compound, the “luminescence (CellTiter-Glo)” value [5, 20] was 17553.45, the “luminescence (CellTiter-Glo)” value [5, 21] was 49251.78 and the “luminescence (CellTiter-Glo)” value [6, 12] was 59686.0. For the same compound, the “luminescence (CellTiter-Glo)” value [6, 13] was 55451.4, the “luminescence (CellTiter-Glo)” value [6, 14] was 53088.1 and the “luminescence (CellTiter-Glo)” value [6, 15] was 54122.7. The “luminescence (CellTiter-Glo)” value [6, 16] was 53424.9, the “luminescence (CellTiter-Glo)” value [6, 17] was 51898.4 and the “luminescence (CellTiter-Glo)” value [6, 18] was 50938.7. The “luminescence (CellTiter-Glo)” value [6, 19] was 51419.9, the “luminescence (CellTiter-Glo)” value [6, 20] was 17553.4 and the “luminescence (CellTiter-Glo)” value [6, 21] was 49251.8.
`Cc1ccccc1C(C(=O)NC1CCCCC1)N(C(=O)Cn1ccnc1C)c1cccc(F)c1` (centres unmarked) [AGI5198] was tested, and the “luminescence (CellTiter-Glo)” value [7, 22] was 54469.95, the “luminescence (CellTiter-Glo)” value [7, 23] was 60402.37 and the “luminescence (CellTiter-Glo)” value [7, 24] was 45182.13. The “luminescence (CellTiter-Glo)” value [7, 25] was 49163.38, the “luminescence (CellTiter-Glo)” value [7, 26] was 37017.16 and the “luminescence (CellTiter-Glo)” value [7, 27] was 22951.32. The “luminescence (CellTiter-Glo)” value [7, 28] was 21796.92, the “luminescence (CellTiter-Glo)” value [7, 29] was 22543.73 and the “luminescence (CellTiter-Glo)” value [7, 30] was 22738.32. For the same compound, the “luminescence (CellTiter-Glo)” value [7, 31] was 21999.40, the “luminescence (CellTiter-Glo)” value [8, 22] was 61813.89 and the “luminescence (CellTiter-Glo)” value [8, 23] was 60845.63. The “luminescence (CellTiter-Glo)” value [8, 24] was 58171.75, the “luminescence (CellTiter-Glo)” value [8, 25] was 64267.34 and the “luminescence (CellTiter-Glo)” value [8, 26] was 61774.53. For the same compound, the “luminescence (CellTiter-Glo)” value [8, 27] was 63970.82, the “luminescence (CellTiter-Glo)” value [8, 28] was 65372.05 and the “luminescence (CellTiter-Glo)” value [8, 29] was 68413.28. The “luminescence (CellTiter-Glo)” value [8, 30] was 66282.58, the “luminescence (CellTiter-Glo)” value [8, 31] was 58163.88 and the “luminescence (CellTiter-Glo)” value [9, 32] was 124126.7. The “luminescence (CellTiter-Glo)” value [9, 33] was 130906.9, the “luminescence (CellTiter-Glo)” value [9, 34] was 145229.1 and the “luminescence (CellTiter-Glo)” value [9, 35] was 142615.3. The “luminescence (CellTiter-Glo)” value [9, 36] was 156751.0, the “luminescence (CellTiter-Glo)” value [9, 37] was 152240.5 and the “luminescence (CellTiter-Glo)” value [9, 38] was 152613.5. For the same compound, the “luminescence (CellTiter-Glo)” value [9, 39] was 145121.4, the “luminescence (CellTiter-Glo)” value [9, 40] was 149634.6 and the “luminescence (CellTiter-Glo)” value [9, 41] was 50666.3. The “luminescence (CellTiter-Glo)” value ([10]; ibrutinib 0 nM, IDH1i 10 uM / MALT1i 100 nM alone) was 75993.70, the “luminescence (CellTiter-Glo)” value ([10]; ibrutinib 0.0256 nM, IDH1i 10 uM / MALT1i 100 nM / medium alone) was 25500.80 and the “luminescence (CellTiter-Glo)” value ([10]; ibrutinib 0.128 nM, IDH1i 10 uM / MALT1i 100 nM / medium alone) was 25788.09. For the same compound, the “luminescence (CellTiter-Glo)” value ([10]; ibrutinib 0.64 nM, IDH1i 10 uM / MALT1i 100 nM / medium alone) was 22928.31, the “luminescence (CellTiter-Glo)” value ([10]; ibrutinib 3.2 nM, IDH1i 10 uM / MALT1i 100 nM / medium alone) was 23004.75 and the “luminescence (CellTiter-Glo)” value ([10]; ibrutinib 16 nM, IDH1i 10 uM / MALT1i 100 nM / medium alone) was 22519.77. For the same compound, the “luminescence (CellTiter-Glo)” value ([10]; ibrutinib 80 nM, IDH1i 10 uM / MALT1i 100 nM / medium alone) was 22451.24, the “luminescence (CellTiter-Glo)” value ([10]; ibrutinib 400 nM, IDH1i 10 uM / MALT1i 100 nM / medium alone) was 19936.75 and the “luminescence (CellTiter-Glo)” value ([10]; ibrutinib 2000 nM, IDH1i 10 uM / MALT1i 100 nM / medium alone) was 19649.45. The “luminescence (CellTiter-Glo)” value ([10]; ibrutinib 10000 nM, IDH1i 10 uM / MALT1i 100 nM / medium alone) was 9604.64, the “luminescence (CellTiter-Glo)” value [11, 32] was 52209.68 and the “luminescence (CellTiter-Glo)” value [11, 33] was 47490.41. For the same compound, the “luminescence (CellTiter-Glo)” value [11, 34] was 48958.10, the “luminescence (CellTiter-Glo)” value [11, 35] was 45155.81 and the “luminescence (CellTiter-Glo)” value [11, 36] was 46620.86. For the same compound, the “luminescence (CellTiter-Glo)” value [11, 37] was 43920.00, the “luminescence (CellTiter-Glo)” value [11, 38] was 43730.28 and the “luminescence (CellTiter-Glo)” value [11, 39] was 45769.76. The “luminescence (CellTiter-Glo)” value [11, 40] was 43047.82 and the “luminescence (CellTiter-Glo)” value [11, 41] was 31970.32.
